Data from publication PMC11845477, “Exploring the principles behind antibiotics with limited resistance” (Nature Communications, 2025).

Legend:
[1] = tested on: A. baumannii ATCC 17978 (SEN) and A. baumannii ATCC BAA-1605 (MDR); experiment: Adaptive laboratory evolution (ALE), relative MIC of evolved lines; assay type: cell-based, Acinetobacter baumannii
Procedure, shortened: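 Ten parallel populations per antibiotic–ancestor pair were evolved in MHB at 37 °C, starting near 50% growth-inhibiting drug. Every 72 h they were passaged into 0.5–2.5× increasing concentrations, keeping the highest-drug well with OD600 > 0.2.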

E. coli ATCC25922 = experiment: Dose-response killing curves (99.9% killing concentration, Hill coefficient); assay type: cell-based, Escherichia coli; settings: dose-response killing curve; for 99.9% killing (10^-3): unit not given
Excerpt: Fig. 9 Killing kinetics of the studied antibiotics. a Bacterial survival rate in response to toxic antibiotic exposure. […] The bars indicate the survival rate (log10) compared to the untreated initial viable cell count (see “Methods”). Data are presented as mean values of 5 biological replicates ± SEM. The antibiotic group differentiation is denoted by color. […] Survival was estimated by measuring cell viability (colony-forming units/ml) of 2 biologically independent strains following a 4-hour exposure to different concentrations of 16 antibiotics on E. coli ATCC25922 (for further details, see “Methods”). The antibiotic concentration that kills 99.9% of the E. coli population is indicated as a vertical dotted line (see Supplementary Data 5). Error bars represent standard error calculated from the colony counts by Poisson’s model. A Hill function was fitted to the dose-response data from two biological replicates, producing sigmoidal curves (Supplementary Data 5). The Hill coefficient reflects how steeply the survival rate decreases in response to increasing antibiotic concentration ([…]). […] X-axis label colors indicate mode of action groups. For detailed information on antibiotic and bacterial species, see Supplementary Data 1. Source data are provided as a Source Data file.
To test the dose range under which resistance can evolve, we employed advanced microplating and automated image analysis. We quantified bacterial population survival at varying antibiotic concentrations[62] (see “Methods”) in E. coli. Briefly, we generated dose-response curves and investigated how steeply the killing effect increases as the antibiotic concentration rises. In specific, the Hill coefficient representing each bacterial strain-antibiotic combination was calculated to quantify dose-kill kinetics.
In this current study, the killing kinetics of each antibiotic was measured according to a previously established experimental protocol[62] with minor modifications. During this assay, the bacterial cultures were exposed to antibiotics in 96-well assay plates and their viability after 4 hours of exposure was quantified by two methods: i) microplating and colony counting or ii) fluorescent staining of cells and counting of the fluorescent units.
Specifically, these experiments were performed in the following steps: (1) Preparation of bacterial stocks. Single colonies from each strain were isolated and grown overnight in MHB medium at 37 °C, 160 rpm. In case of the fluorescently tagged E. coli strains, the medium was supplemented with 10 μg/mL chloramphenicol, to maintain the pZS2R plasmid. Overnight cultures were diluted 1:5000 and grown to an optical density at 600 nm (OD600) of 0.25. These cultures were concentrated by centrifugation and small aliquots of 50 μL containing ~2.2 × 10^9 cells were frozen in glycerol (stored at −80 °C). (2) Preparing assay plates with antibiotics. 96-well plates were filled with 235 μL MHB and supplemented with antibiotics using an automated digital dispenser (D300e, Tecan). In the case of SCH79797, we used minimal media. […] For testing the clearance efficacy of each antibiotic at a single lethal dose, the 10x of the MIC for each antibiotic-strain pair were prepared in at least three replicates. (3) Antibiotic exposure. During the dose response assay, frozen cultures of the E. coli strains expressing YFP and mCherry were thawed and mixed at a 1:1 ratio, diluted 1:1000 in 30 mL MHB and incubated for 45 min at 37 °C and 160 rpm. During the single-dose assay, the frozen cultures of experimental strains (E. coli, K. pneumoniae, A. baumannii) were also thawed and diluted 1:1000 in 30 mL MHB and incubated at 37 °C to reach an OD of 0.25 and 160 rpm.

[2] = AB-MDR (Acinetobacter baumannii ATCC BAA 1605), evolved line 2
[3] = AB-MDR (Acinetobacter baumannii ATCC BAA 1605), evolved line 5
[4] = AB-MDR (Acinetobacter baumannii ATCC BAA 1605), evolved line 7
[5] = AB-MDR (Acinetobacter baumannii ATCC BAA 1605), evolved line 9
[6] = AB-MDR (Acinetobacter baumannii ATCC BAA 1605), evolved line 10
[7] = AB-SEN (Acinetobacter baumannii ATCC 17978), evolved line 4
[8] = AB-SEN (Acinetobacter baumannii ATCC 17978), evolved line 6
[9] = AB-SEN (Acinetobacter baumannii ATCC 17978), evolved line 8
[10] = AB-SEN (Acinetobacter baumannii ATCC 17978), evolved line 9
[11] = AB-SEN (Acinetobacter baumannii ATCC 17978), evolved line 10
[12] = ALE, Acinetobacter baumannii ATCC 17978 (AB-SEN), evolved line 2
[13] = ALE, Acinetobacter baumannii ATCC 17978 (AB-SEN), evolved line 4
[14] = ALE, Acinetobacter baumannii ATCC 17978 (AB-SEN), evolved line 6
[15] = ALE, Acinetobacter baumannii ATCC 17978 (AB-SEN), evolved line 8
[16] = ALE, Acinetobacter baumannii ATCC 17978 (AB-SEN), evolved line 9
[17] = ALE, Acinetobacter baumannii ATCC 17978 (AB-SEN), evolved line 10
[18] = ALE, Acinetobacter baumannii ATCC BAA 1605 (AB-MDR), evolved line 2
[19] = ALE, Acinetobacter baumannii ATCC BAA 1605 (AB-MDR), evolved line 5
[20] = ALE, Acinetobacter baumannii ATCC BAA 1605 (AB-MDR), evolved line 7
[21] = ALE, Acinetobacter baumannii ATCC BAA 1605 (AB-MDR), evolved line 9
[22] = ALE, Acinetobacter baumannii ATCC BAA 1605 (AB-MDR), evolved line 10

## CC(C)c1ccc(Cn2ccc3c4c(N)nc(NC5CC5)nc4ccc32)cc1 [SCH79797]
[1]; AB-MDR (A. baumannii ATCC BAA 1605), evolved line 2 of the given antibiotic
  MIC of evolved line: 8 µg/mL
[1]; AB-MDR (A. baumannii ATCC BAA 1605), evolved line 2 vs ancestor
  Relative MIC: 2
[1]; AB-MDR (A. baumannii ATCC BAA 1605), evolved line 5 of the given antibiotic
  MIC of evolved line: 8 µg/mL
[1]; AB-MDR (A. baumannii ATCC BAA 1605), evolved line 5 vs ancestor
  Relative MIC: 2
[1]; AB-MDR (A. baumannii ATCC BAA 1605), evolved line 7 of the given antibiotic
  MIC of evolved line: 16 µg/mL
[1]; AB-MDR (A. baumannii ATCC BAA 1605), evolved line 7 vs ancestor
  Relative MIC: 4
[1]; AB-MDR (A. baumannii ATCC BAA 1605), evolved line 9 of the given antibiotic
  MIC of evolved line: 8 µg/mL
[1]; AB-MDR (A. baumannii ATCC BAA 1605), evolved line 9 vs ancestor
  Relative MIC: 2
[1]; AB-MDR (A. baumannii ATCC BAA 1605), evolved line 10 of the given antibiotic
  MIC of evolved line: 8 µg/mL
[1]; AB-MDR (A. baumannii ATCC BAA 1605), evolved line 10 vs ancestor
  Relative MIC: 2
[1]; [2]
  Relative MIC: 2
  Relative MIC (log10): 0.301 log10
[1]; [3]
  Relative MIC: 2
  Relative MIC (log10): 0.301 log10
[1]; [4]
  Relative MIC: 4
  Relative MIC (log10): 0.6021 log10
[1]; [5]
  Relative MIC: 2
  Relative MIC (log10): 0.301 log10
[1]; [6]
  Relative MIC: 2
  Relative MIC (log10): 0.301 log10
[1]; AB-SEN (A. baumannii ATCC 17978), evolved line 2 of the given antibiotic
  MIC of evolved line: 4 µg/mL
[1]; AB-SEN (A. baumannii ATCC 17978), evolved line 2 vs ancestor
  Relative MIC: 1
[1]; AB-SEN (A. baumannii ATCC 17978), evolved line 4 of the given antibiotic
  MIC of evolved line: 8 µg/mL
[1]; AB-SEN (A. baumannii ATCC 17978), evolved line 4 vs ancestor
  Relative MIC: 2
[1]; AB-SEN (A. baumannii ATCC 17978), evolved line 6 of the given antibiotic
  MIC of evolved line: 8 µg/mL
[1]; AB-SEN (A. baumannii ATCC 17978), evolved line 6 vs ancestor
  Relative MIC: 2
[1]; AB-SEN (A. baumannii ATCC 17978), evolved line 8 of the given antibiotic
  MIC of evolved line: 8 µg/mL
[1]; AB-SEN (A. baumannii ATCC 17978), evolved line 8 vs ancestor
  Relative MIC: 2
[1]; AB-SEN (A. baumannii ATCC 17978), evolved line 9 of the given antibiotic
  MIC of evolved line: 8 µg/mL
[1]; AB-SEN (A. baumannii ATCC 17978), evolved line 9 vs ancestor
  Relative MIC: 2
[1]; AB-SEN (A. baumannii ATCC 17978), evolved line 10 of the given antibiotic
  MIC of evolved line: 8 µg/mL
[1]; AB-SEN (A. baumannii ATCC 17978), evolved line 10 vs ancestor
  Relative MIC: 2
[1]; AB-SEN (Acinetobacter baumannii ATCC 17978), evolved line 2
  Relative MIC: 1
[1]; [7]
  Relative MIC: 2
  Relative MIC (log10): 0.301 log10
[1]; [8]
  Relative MIC: 2
  Relative MIC (log10): 0.301 log10
[1]; [9]
  Relative MIC: 2
  Relative MIC (log10): 0.301 log10
[1]; [10]
  Relative MIC: 2
  Relative MIC (log10): 0.301 log10
[1]; [11]
  Relative MIC: 2
  Relative MIC (log10): 0.301 log10
[1]; [12]
  Relative MIC: 1
[1]; [13]
  Relative MIC: 2
[1]; [14]
  Relative MIC: 2
[1]; [15]
  Relative MIC: 2
[1]; [16]
  Relative MIC: 2
[1]; [17]
  Relative MIC: 2
[1]; [18]
  Relative MIC: 2
[1]; [19]
  Relative MIC: 2
[1]; [20]
  Relative MIC: 4
[1]; [21]
  Relative MIC: 2
[1]; [22]
  Relative MIC: 2
[1]; Acinetobacter baumannii ATCC 17978 (AB-SEN), evolved line 2
  Relative MIC: 1
[1]; Acinetobacter baumannii ATCC 17978 (AB-SEN), evolved line 4
  Relative MIC: 2
[1]; Acinetobacter baumannii ATCC 17978 (AB-SEN), evolved line 6
  Relative MIC: 2
[1]; Acinetobacter baumannii ATCC 17978 (AB-SEN), evolved line 8
  Relative MIC: 2
[1]; Acinetobacter baumannii ATCC 17978 (AB-SEN), evolved line 9
  Relative MIC: 2
[1]; Acinetobacter baumannii ATCC 17978 (AB-SEN), evolved line 10
  Relative MIC: 2
[1]; Acinetobacter baumannii ATCC BAA 1605 (AB-MDR), evolved line 2
  Relative MIC: 2
[1]; Acinetobacter baumannii ATCC BAA 1605 (AB-MDR), evolved line 5
  Relative MIC: 2
[1]; Acinetobacter baumannii ATCC BAA 1605 (AB-MDR), evolved line 7
  Relative MIC: 4
[1]; Acinetobacter baumannii ATCC BAA 1605 (AB-MDR), evolved line 9
  Relative MIC: 2
[1]; Acinetobacter baumannii ATCC BAA 1605 (AB-MDR), evolved line 10
  Relative MIC: 2
E. coli ATCC25922
  Steepness (Hill Coefficient): 16.39
  99.9% killing (10^-3): 4.31

## POL7306
[1]; ALE, Acinetobacter baumannii ATCC 17978 (AB-SEN), evolved line 1
  Relative MIC: 256
[1]; [12]
  Relative MIC: 32
[1]; ALE, Acinetobacter baumannii ATCC 17978 (AB-SEN), evolved line 3
  Relative MIC: 16
[1]; [13]
  Relative MIC: 2
[1]; [14]
  Relative MIC: 32
[1]; ALE, Acinetobacter baumannii ATCC 17978 (AB-SEN), evolved line 7
  Relative MIC: 2
[1]; [15]
  Relative MIC: 2
[1]; [16]
  Relative MIC: 256
[1]; [17]
  Relative MIC: 32
[1]; ALE, Acinetobacter baumannii ATCC BAA 1605 (AB-MDR), evolved line 1
  Relative MIC: 2
[1]; [18]
  Relative MIC: 16
[1]; ALE, Acinetobacter baumannii ATCC BAA 1605 (AB-MDR), evolved line 3
  Relative MIC: 16
[1]; ALE, Acinetobacter baumannii ATCC BAA 1605 (AB-MDR), evolved line 4
  Relative MIC: 16
[1]; [19]
  Relative MIC: 16
[1]; ALE, Acinetobacter baumannii ATCC BAA 1605 (AB-MDR), evolved line 6
  Relative MIC: 2
[1]; [20]
  Relative MIC: 16
[1]; ALE, Acinetobacter baumannii ATCC BAA 1605 (AB-MDR), evolved line 8
  Relative MIC: 8
[1]; [21]
  Relative MIC: 32
[1]; [22]
  Relative MIC: 16
E. coli ATCC25922
  Steepness (Hill Coefficient): 43.61
  99.9% killing (10^-3): 2.31
